Test results published in patent US20210386709A1, “COMPOSITIONS AND METHODS FOR SUPPRESSING MSUT2” (United States Government As Represented By The Department …, priority 2020, published 2021).
Several values for one entry are separate records, joined by “and”; a condition that tells them apart may be missing. Identical values can stand only once.

Key:
PABPN1 = target: T1, PABPN1 (Homo sapiens, UniProt Q86U42); experiment: Alpha Screen selectivity screen against PABPN1; assay type: binding; settings: Alpha Screen dose response IC50s
T1 construct: made in house; host or cells: E. coli BL21 (DE3)
T1 sequence (Q86U42 1-306): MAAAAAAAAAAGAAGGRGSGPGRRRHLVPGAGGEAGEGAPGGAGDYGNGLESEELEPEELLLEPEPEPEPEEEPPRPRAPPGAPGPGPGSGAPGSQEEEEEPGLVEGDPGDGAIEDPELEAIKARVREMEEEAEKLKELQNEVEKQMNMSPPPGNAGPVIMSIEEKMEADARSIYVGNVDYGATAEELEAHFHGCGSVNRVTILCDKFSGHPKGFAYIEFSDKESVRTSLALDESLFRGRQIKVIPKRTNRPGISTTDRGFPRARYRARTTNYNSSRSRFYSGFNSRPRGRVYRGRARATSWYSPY
Protocol: FIGS. 6A-B show the Selectivity screen. Compounds were screened by Alpha Screen (FIG. 6A) for MSUT2 and PABPN1 (FIG. 6B) dose response. IC50s indicated.
Alpha Screen Assay. Samples were set up in 384 well Perkin Elmer white opaque-bottom plates (PE06). A total reaction volume of […] was plated in 384 format using a CyBio Well Vario (6 μL of donor beads (10 μg/mL), 3 μL biotinylated RNA (250 nM), 3 μL GST-MSUT2 protein (250 nM) per well). 50 nL of compounds were transferred to wells via CyBio Vario equipped with Pin Tool. This mixture was incubated at room temperature for 30 minutes away from light. Next 3 μL of acceptor beads (1.25 μg/mL) was added. Plates were incubated at room temperature away from light for 60 minutes and subsequently read on a Perkin Elmer EnVision multimode microplate reader equipped with stackers using a standard 384-well Alpha Assay software protocol.
Screening of the Spectrum Collection. […] The hit window consisted of those compounds 7 standard deviations from the mean (FIG. 2a). In follow up dose-response testing, 11 of the 20 initial hits were validated and moved forward to further validation studies (FIG. 3). Unbound fluorescein-labeled RNA rapidly rotates in solution compared to MSUT2-bound. […] These four compounds were tested for an effect on cell viability using a HEK-cell model. […]

HEK-293 cells = experiment: Cell viability, Promega Cell Titer Glo
Protocol: Cell culture and cytotoxicity screen. […] Cell viability was assessed as using Promega Cell Titer Glo (Promega G7570) per manufacturer protocol. Briefly, HEK-293 cells were grown to 70% confluence in a 96 well plate were treated with indicated concentrations of compounds and incubated for 72 hours at 37° C. Plates were read for luminescence on Perkin Elmer Enspire Alpha.
Cell viability was assessed. Briefly, HEK-293 cells grown to 70% confluence in a 96 well dish were treated with varying concentrations of compound (final concentration of 2% DMSO) and incubated for 72 hours. Next, Promega Cell Titer Glo assay was used to assess viability per manufacturer instructions (Promega G7570).

MSUT2 ZF = target: T2, MSUT2 ZF (Homo sapiens, UniProt Q6PJT7); experiment: Fluorescence polarization assay of FAM-poly(A) RNA:MSUT2 ZF binding; settings: by FP assay; read-out: Ki for MSUT2 by FP assay
T2 construct: Targeted construct consisted of the c-terminal end (dark blue and amino acids 601-736) of MSUT2; made in house; host or cells: E. coli BL21 (DE3)
T2 sequence (Q6PJT7 601-736): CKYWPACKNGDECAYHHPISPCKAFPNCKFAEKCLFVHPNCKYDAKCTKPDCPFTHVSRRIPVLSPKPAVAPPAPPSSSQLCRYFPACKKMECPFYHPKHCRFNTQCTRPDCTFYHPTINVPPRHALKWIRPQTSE
Protocol: Fluorescence Polarization Assay. […] 2 μL of compound was transferred for a final concentration of 10 μM. […] Fluorescence polarization was calculated by first subtracting background from a buffer-only control well and then using the equation
Results and Discussion. A high-throughput fluorescence polarization assay for inhibition of poly(A):MSUT2 RNA interaction. […] In order to screen potential inhibitors of MSUT2 RBP and RNA by FP, fluorescent FAM (fluorescein amidite)-labeled poly(A)15 RNA (FAM-RNA) and recombinant MSUT2 ZF (zinc finger) protein expressing constructs were generated (FIG. 7a). […] Inhibition of the interaction results in unbound FAM-RNA tumbling at a relatively rapid rate and emitting non-polarized light (FIG. 7b).
To determine the concentrations of both MSUT2 ZF protein and FAM-RNA probe useful in the methods described herein, a two dimensional titration of protein and RNA concentrations in 96-well format was performed. […] Next, the binding constant between MSUT2 ZF and FAM-RNA was determined by holding FAM-RNA constant at 10 nM while increasing MSUT2 ZF concentration.
Identification and validation of MSUT2 inhibitory compounds from NIHCC library. […] IC50 of each of the previous 8 compounds was determined for PABPN1 using fluorescence polarization (FIG. 11), and a specificity ratio determined (Table 3). An Alpha Screen (AS) assay was developed as an orthogonal screen. Briefly, in this screen, biotinylated RNA binds streptavidin-coated donor beads, while GST-MSUT2 ZF binds glutathione-coated acceptor beads. When donor beads and acceptor beads are brought within close proximity of one another, laser excitation leads to fluorophore emission of the acceptor bead via excited singlet oxygen activating chemiluminescers in the acceptor beads. […] Toxicity of these compounds in a HEK cell model was determined using a standard Promega Cell Titer Glo assay.
Fluorescence Polarization Assay. […] of stock compound was transferred yielding 10 μM final concentration. […] Fluorescence polarization was calculated by first subtracting background from a buffer-only control well and then using the equation

fold selectivity for MSUT2 over PABPN1 (PABPN1): 5 fold and 4.6 fold | Ki (MSUT2 ZF): 1020 nM
SMILES: O=c1c2ccccc2[se]n1-c1ccccc1 [Ebselen]
toxicity (effect on cell viability) (HEK-293 cells; HEK-293, 72 hours, indicated concentrations): did not show toxicity in a dose-dependent manner | reduction of cell viability (HEK-293 cells; HEK-293, at the tested doses, compared to DMSO control): roughly 40%
